# Reference: patent US20110091472A1, “COMPOSITIONS FOR TREATING PSORIASIS” (Novartis Vaccines and Diagnostic, Inc., priority 1999, published 2011)
# Tested on: lesional psoriatic skin grafted onto SCID mice
# Assay: SCID mouse psoriatic skin graft model, methotrexate alone or in combination with low dose 5D12
# Type: in vivo
# Details: methotrexate 0.1 to 0.4 mg/kg increasing regimen in combination with the isotype control antibody
# Experimental: This experiment was conducted, using the mouse model described in Example 1, to quantitate the anti-psoriatic effects of low doses of anti-CD40 antibody. The low-dose treatment with antibody 5D12 consisted of intraperitoneal injections of mice with 0.5 mg/kg 5D12 every other day for two weeks. High-dose treatment consisted of intraperitoneal injections of mice with 5 mg/kg 5D12 every other day for two weeks. […] The treatment control group consisted of mice injected intraperitoneally with isotype control antibody for two weeks. Four weeks after the termination of the treatments, the grafts were harvested and either fixed in formaldehyde or snap-frozen. Fixed material was used for morphological analyses based on H+E staining, and the snap-frozen material used for additional immunohistochemical analyses.
# The effects of methotrexate treatment alone or in combination with low dose (0.5 mg/kg) 5D12 treatment were evaluated. An increasing dosing regimen was chosen, starting with 0.1 mg/kg and increasing the dose by 0.05 mg/kg every week until 0.4 mg/kg was reached. The scheme was combined with the application of the isotype control antibody or with the low dose 5D12 treatment schedule. The isotype control treatment served as a negative control and the low dose 5D12 treatment as a positive control.
smiles,measurement,value
CN(Cc1cnc2nc(N)nc(N)c2n1)c1ccc(C(=O)N[C@@H](CCC(=O)O)C(=O)O)cc1 [Methotrexate],effects on epidermal thickness (in words),only minimal effects on epidermal thickness
